Laboratory results as given in patent publication US20260184669A1, “LIPID COMPOUND AND COMPOSITION FOR DELIVERY OF ACTIVE SUBSTANCE” (KOREA RESEARCH INSTIUTE OF BIOSCIENCE AND BIOTECHNOLOGY, priority 2022, published 2026).

Columns and labels:
[1] = Apparent pKa of mRNA-LNP by TNS binding assay; type: physicochemical; settings: apparent pKa of mRNA-LNP made with the ionizable lipid
Method: The apparent pKa of the mRNA-LNPs prepared according to Example 27 was determined by analysis using 6-(p-toluidino)-2-naphthalenesulfonic acid sodium salt (TNS; Sigma-Aldrich, USA).
However, as the pH decreases, the proportion of positively charged ionizable lipids increases, allowing electrostatic interactions with TNS. […] When the pH of the solution increases and the ionizable lipids become neutralized, TNS can no longer engage in electrostatic interactions. Consequently, TNS loses its lipophilic character, exits the hydrophobic domain, and its fluorescence is quenched. Based on this principle, the pKa of LNPs can be measured by plotting the change in TNS fluorescence intensity in response to variations in the surrounding pH as an S-shaped curve, and calculating the […] of the inflection point. […]
Specifically, a master buffer was prepared containing 10 mM sodium phosphate, 10 mM sodium borate, 10 mM sodium citrate, and 150 mM sodium chloride (NaCl). […] After gently mixing the contents of each well, the fluorescence intensity was measured using a multiplate reader (Cary Eclipse, Agilent Technologies, USA) at an excitation wavelength of λex 330 nm and an emission wavelength of λem 435 nm.

[2] = Size, polydispersity index and surface charge of mRNA-LNP (Malvern Zetasizer Nano ZS90); type: physicochemical
Outline: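 Dynamic/electrophoretic light scattering of LNPs diluted in PBS to a final mRNA concentration of 1 μg/mL. Readouts were particle size, PDI and surface charge.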

female C57BL/6 mice = test: Protein expression efficiency of fLuc mRNA-LNPs after intramuscular injection (IVIS whole-body luminescence); type: in vivo; settings: fLuc mRNA-LNP, intramuscular injection, luminescence at injection site, mice
Outline: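 Female C57BL/6 mice (6-10 weeks, n≥4) got intramuscular fLuc mRNA-LNPs at 0.1-0.5 mg/kg mRNA. Injection-site luminescence was imaged under isoflurane at 1-72 h, 10 min after i.p. D-luciferin (200 μL, 15 mg/mL). Expression at 3 h was taken relative to MC3 or SM-102 LNPs.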

[3] = Stability of mRNA-LNPs according to storage temperature and duration; type: physicochemical; settings: for Normalized EE % D-7 / PDI D-7 / Size (nm) D-7: day 7; for Normalized EE % D-30 / PDI D-30 / Size (nm) D-30: day 30
Method: Stability of fLuc mRNA-LNPs produced using various ionizable lipids according to the method of Example 27, was assessed by storing the LNPs at 4° C. and 25° C. At 1, 7, and 30 days post-manufacture, the size, PDI, and encapsulation efficiency (EE) of each mRNA-LNPs samples were measured using the methods described in Experimental Examples 2 and 3.

[4] = tested on: CCL2 mRNA level in HEK-293T cells
[5] = tested on: CCL3 mRNA level in HEK-293T cells
[6] = tested on: IL-1β mRNA level in HEK-293T cells
[7] = tested on: IL-6 mRNA level in HEK-293T cells
[8] = fLuc mRNA-LNP stored at 4° C., day 1
[9] = fLuc mRNA-LNP stored at 25° C., day 1

With `CCCCC/C=C\C/C=C\CCCCCCCCC(CCCCCCCC/C=C\C/C=C\CCCCC)OC(=O)CCCN(C)C` [MC3, DLin-MC3-DMA, reference compound] the PKa [1] was 6.14, the PDI ([2]; mRNA-LNP made with the ionizable lipid at its optimal formulation (Table 2)) was 0.174 and the “size (nm) Number” value ([2]; mRNA-LNP made with the ionizable lipid at its optimal formulation (Table 2), diluted with PBS to 1 μg/mL mRNA) was 93 nm. For the same compound, the “Zeta (mV)” value ([2]; surface charge of mRNA-LNP made with the ionizable lipid at its optimal formulation (Table 2)) was −2.65 mV, the “Total flux 1 hour” value (female C57BL/6 mice; 1 hour after administration) was 1.20E+06 and the “Total flux 3 hours” value (female C57BL/6 mice; 3 hours after administration) was 1.24E+07. For the same compound, the “Total flux 6 hours” value (female C57BL/6 mice; 6 hours after administration) was 1.78E+07, the “Total flux 48 hours” value (female C57BL/6 mice; 48 hours after administration) was 8.41E+05 and the “Total flux 72 hours” value (female C57BL/6 mice; 72 hours after administration) was 3.89E+05. The Total flux (female C57BL/6 mice; after administration) was 1.03E+06, the “Normalized EE % D-1” value [3, 8] was 95.0% and the “Size (nm) D-1” value [3, 8] was 92.8 nm. For the same compound, the “Normalized EE % D-7” value ([3]; fLuc mRNA-LNP stored at 4° C.) was 94.0%, the “PDI D-7” value ([3]; fLuc mRNA-LNP stored at 4° C.) was 0.060 and the “Size (nm) D-7” value ([3]; fLuc mRNA-LNP stored at 4° C.) was 128.7 nm. The “Normalized EE % D-30” value ([3]; fLuc mRNA-LNP stored at 4° C.) was 90.4%, the “PDI D-30” value ([3]; fLuc mRNA-LNP stored at 4° C.) was 0.142 and the “Size (nm) D-30” value ([3]; fLuc mRNA-LNP stored at 4° C.) was 125.6 nm. For the same compound, the “Normalized EE % D-1” value [3, 9] was 95.0%, the “PDI D-1” value [3, 9] was 0.174 and the “Size (nm) D-1” value [3, 9] was 92.8 nm. For the same compound, the “Normalized EE % D-7” value ([3]; fLuc mRNA-LNP stored at 25° C.) was 90.8%, the “PDI D-7” value ([3]; fLuc mRNA-LNP stored at 25° C.) was 0.110 and the “Size (nm) D-7” value ([3]; fLuc mRNA-LNP stored at 25° C.) was 123.0 nm. The “Normalized EE % D-30” value ([3]; fLuc mRNA-LNP stored at 25° C.) was 88.3%, the “PDI D-30” value ([3]; fLuc mRNA-LNP stored at 25° C.) was 0.123 and the “Size (nm) D-30” value ([3]; fLuc mRNA-LNP stored at 25° C.) was 119.3 nm. For the same compound, the “CCL2 Average” value [4] was 1.15, the “CCL3 Average” value [5] was 1.86 and the “IL-1β Average” value [6] was 1.46. The “IL-6 Average” value [7] was 1.27.
